Each structure is given as a SMILES string.

From article PMC10145898, “Drug Repurposing of FDA Compounds against α-Glucosidase for the Treatment of Type 2 Diabetes: Insights from Molecular Docking and Molecular Dynamics Simulations” (Pharmaceuticals, 2023) come the findings set out here.

This assay concerns the target α-glucosidase. The experiment in a line: pNPG hydrolysis absorbance assay at […] nm, pH […] °C. The format is biochemical.

For orientation: IC50 means the midpoint of a concentration-inhibition curve. As to `COc1cc2c(cc1O)CCN[C@]21CS[C@@H]2c3c(OC(C)=O)c(C)c4c(c3[C@H](COC1=O)N1[C@@H]2[C@H]2c3c(cc(C)c(OC)c3O)C[C@@H]([C@@H]1O)N2C)OCO4` [Trabectedin], it took 1260 ± 700 nM to reach half-maximal inhibition (IC50).
